From US9926299B2, “Inhibitors of bruton's tyrosine kinase” (Centaurus BioPharma Co., Ltd., priority 2012, dated 2018) come the findings set out here.

One may read the IC50 as the concentration needed to halve the response being measured.

In one experiment the target is BTK kinase (Homo sapiens (Human), UniProt Q06187). As to the kind of experiment: Btk kinase enzymatic assay (HTRF). Format: biochemical. Particulars: ATP at Km. On the procedure: Btk kinase activity was determined using a Homogeneous Time-Resolved Fluorescence (HTRF) methodology (Cisbio). […] The mixture was centrifuged and incubated for 5 min. […] For each compound, enzyme activity was measured at various concentrations of compound, and IC50s were obtained by GraFit Software 6.0 (Erithacus Software).

A further experiment concerns Ramos cells. As to the kind of experiment: BCR-induced calcium flux fluorescence-based assay in Ramos cells. Particulars: Ramos cells stimulated with goat anti-human IgM antibody; read-out: Ramos Cell Ca Flux IC50. Here is the method:
Calcium flux fluorescence-based assays were performed using Fluo-4 Direct™ Calcium Assay Kits (purchased from Invitrogen) in a FlexStation III (purchased from Molecular Devices) according to manufacturer instructions. In brief, actively growing Romas cells in RPM1-1640 medium (purchased from Invitrogen) supplemented with 10% FBS (purchased from Hyclone) were washed and re-plated in low serum medium at approximately 1×10^5 cells per 45 μL per well in a 96-well plate (purchased from Corning), then added 45 μL of dye (purchased from Invitrogen) and incubated at 37 degree for 1 hour. Compounds to be assayed were dissolved and 3-fold serially diluted in DMSO and then diluted by 100 times in low serum medium. Then 10 μL of the diluted mixture were added to the above 96-well plate (final DMSO concentration was 0.1%) and incubated at 37 degree in 5% CO2 incubator for 0.5 hour. The compound-treated cells were stimulated with a goat anti-human IgM antibody (10 μg/ml; purchased from SouthernBiotech) and read in the FlexStation III using a λEx=494 nM and […] for 90 seconds. The relative fluorescence unit (RFU) and the IC50 were recorded and analyzed using a GraphPad Prism 5 (GraphPad Software).
On the technique in general: A change in cytosolic calcium serves as a functional read-out for many receptors and channels.

Chain of BTK kinase (Q06187 whole entry): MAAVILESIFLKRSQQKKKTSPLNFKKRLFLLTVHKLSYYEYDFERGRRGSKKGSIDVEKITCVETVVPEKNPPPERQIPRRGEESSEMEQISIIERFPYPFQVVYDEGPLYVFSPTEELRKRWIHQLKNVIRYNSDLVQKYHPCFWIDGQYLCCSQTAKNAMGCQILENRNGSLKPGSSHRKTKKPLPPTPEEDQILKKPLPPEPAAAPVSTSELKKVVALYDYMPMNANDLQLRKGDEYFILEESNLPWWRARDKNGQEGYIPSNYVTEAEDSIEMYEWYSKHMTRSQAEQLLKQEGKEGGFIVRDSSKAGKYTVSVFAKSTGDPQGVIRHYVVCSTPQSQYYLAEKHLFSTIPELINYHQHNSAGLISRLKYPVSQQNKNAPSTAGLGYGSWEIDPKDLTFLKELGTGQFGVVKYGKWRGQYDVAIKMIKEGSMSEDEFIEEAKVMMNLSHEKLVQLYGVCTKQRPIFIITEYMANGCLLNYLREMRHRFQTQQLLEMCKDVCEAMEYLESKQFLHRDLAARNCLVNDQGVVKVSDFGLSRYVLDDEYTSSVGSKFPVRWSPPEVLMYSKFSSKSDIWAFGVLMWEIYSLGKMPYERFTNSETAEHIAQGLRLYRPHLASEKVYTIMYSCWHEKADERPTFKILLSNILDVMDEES

As to `C=CC(=O)N1CC[C@@H](n2nc(-c3ccc(Oc4ccccc4Cl)cc3)c(C(N)=O)c2N)C1` [Example 45, (R)-1-(1-acryloylpyrrolidin-3-yl)-5-amino-3-(4-(2-chlorophenoxyl)phenyl)-1H-pyrazole-4-carboxamide], the half-maximal inhibitory concentration (IC50) at BTK kinase and in the experiment with Ramos cells was less than 0.1 µM in each case.
As for `C=CC(=O)N1CC[C@@H](n2nc(-c3ccc(Oc4ccc(OC)cc4)cc3)c(C(N)=O)c2N)C1` [Example 46, (R)-1-(1-acryloylpyrrolidin-3-yl)-5-amino-3-(4-(4-methoxyphenoxyl)phenyl)-1H-pyrazole-4-carboxamide], the IC50 on BTK kinase and in the experiment on Ramos cells was less than 0.1 µM each time.
`C=CC(=O)N1CC[C@@H](n2nc(-c3ccc(Oc4cc([N+](=O)[O-])ccc4C)cc3)c(C(N)=O)c2N)C1` [Example 47, (R)-1-(1-acryloylpyrrolidin-3-yl)-5-amino-3-(4-(2-methyl-5-nitrophenoxy)phenyl)-1H-pyrazole-4-carboxamide]: the IC50 at BTK kinase and with Ramos cells was less than 0.1 µM each time.
Turning to `C=CC(=O)N1CC[C@@H](n2nc(-c3ccc(Oc4ccc(C)c([N+](=O)[O-])c4)cc3)c(C(N)=O)c2N)C1` [Example 48, (R)-1-(1-acryloylpyrrolidin-3-yl)-5-amino-3-(4-(4-methyl-3-nitrophenoxy)phenyl)-1H-pyrazole-4-carboxamide], the IC50 against BTK kinase and with Ramos cells was less than 0.1 µM each time.
As to `C=CC(=O)N1CC[C@@H](n2nc(-c3ccc(Oc4cccc([N+](=O)[O-])c4)c(C)c3)c(C(N)=O)c2N)C1` [Example 49, (R)-1-(1-acryloylpyrrolidin-3-yl)-5-amino-3-(3-methyl-4-(3-nitrophenoxy)phenyl)-1H-pyrazole-4-carboxamide], the half-maximal inhibitory concentration (IC50) at BTK kinase and in the experiment on Ramos cells was less than 0.1 µM each time.
